Measured values as given in patent publication US7968532B2 (Besins Healthcare Luxembourg, priority 2003, dated 2011).
Read-outs that look alike come from different tables or passages of the source. One block for each compound: values may come before it.

Assays:
[1] = Follow-up study: percutaneous Z-[^3H]-4-hydroxy tamoxifen or Z-[^3H]-tamoxifen on the breast before surgery; tissue, plasma, urine radioactivity; details: for Share of radioactivity in blood: 24 hours after percutaneous 4-hydroxy tamoxifen
Method: (§1) The patients received [^3H]-labeled drug applied directly on the affected breasts at specified intervals ranging from 12 hours to 7 days before surgery to excise diseased tissue. Breast tissue from three regions: the tumor, tissue immediately surrounding the tumor, and normal tissue, was excised and immediately frozen in liquid nitrogen. Additionally, plasma and urine samples were obtained at scheduled intervals and frozen until analysis.

[2] = topical application
Method: (§2) Each participant applied the gel daily for the duration of two menstrual cycles.
(§3) On the first day of the following menstruation, treatment, which consisted of daily application of the gel over two menstrual cycles, began. Blood samples were collected 24 hours following the morning application of gel on days 7, 20 and 25 of the first and second cycles. On the last day of administration, day 25 of the second menstrual cycle, serial blood samples were collected prior to application and at 0.5, 1, 1.5, 2, 3, 4, 6, 12, 18, 24, 36, 48, and 72 hours after application of the gel.

[3] = in vivo
Method: as §1

[4] = human, in vivo; cited from earlier work
[5] = Pharmacokinetics of 4-hydroxy tamoxifen gel in healthy premenopausal women; assay type: in vivo, human
Method: as §2
At the end of a menstrual cycle, each patient received a single dose, after which serial blood samples were collected at 0, 0.5, 1, 1.5, 2, 3, 4, 6, 12, 18, 24, 36, 48, and 72 hours.
as §3

rat liver = details: cited from earlier work
[6] = one person in Group 2 (0.5 mg/day gel, seventh day); one person in Group 1 (oral tamoxifen, fifth day); cited from earlier work

- Percentage of radioactivity in breast tissue as Z and E isomer ([1]; day 7 after percutaneous administration): 33%
SMILES: CC/C(=C(/c1ccc(O)cc1)c1ccc(OCCN(C)C)cc1)c1ccccc1 (single isomer, unassigned) [E isomer]

- Share of radioactivity in blood [3]: 68%
- Time of plateau of radioactivity in blood [3]: 4 to 6 days
- Plasma concentration of 4-hydroxy tamoxifen, Mean ± SD (Range) ([5]; 0.5 mg/day, gel 20 mg/100 g, n=12, First cycle Day 1, 0 hr): (0-17.2) pg/mL
- Plasma concentration of 4-hydroxy tamoxifen, Mean ± SD (Range) ([5]; 0.5 mg/day, gel 20 mg/100 g, n=12, Second cycle, +8 days, LOQ <5 pg/mL): <LOQ
- Plasma concentration of 4-hydroxy tamoxifen, Mean ± SD (Range) ([5]; 0.5 mg/day, gel 20 mg/100 g, n=12, Second cycle, +12 days (maximum)): ≤ 9.09 pg/mL
- Plasma concentration of 4-hydroxy tamoxifen, Mean ± SD (Range) ([5]; 0.5 mg/day, gel 20 mg/100 g, n=12, Second cycle, +20 days): 0 pg/mL
- Plasma concentration of 4-hydroxy tamoxifen, Mean ± SD (Range) ([5]; 1 mg/day, gel 20 mg/100 g, n=8, First cycle Day 1, 0 hr): (0-13.9) pg/mL
- Plasma concentration of 4-hydroxy tamoxifen, Mean ± SD (Range) ([5]; 1 mg/day, gel 20 mg/100 g, n=8, Second cycle, +20 days, LOQ <5 pg/mL): <LOQ
- Plasma concentration of 4-hydroxy tamoxifen, Mean ± SD (Range) ([5]; 1 mg/day, gel 57 mg/100 g, n=12, First cycle Day 1, 0 hr): (0-9.5) pg/mL
- Plasma concentration of 4-hydroxy tamoxifen, Mean ± SD (Range) ([5]; 1 mg/day, gel 57 mg/100 g, n=12, Second cycle, +8 days): (0-14.8) pg/mL
- Plasma concentration of 4-hydroxy tamoxifen, Mean ± SD (Range) ([5]; 2 mg/day, gel 57 mg/100 g, n=12, First cycle Day 1, 0 hr): (0-0) pg/mL
- Plasma concentration of 4-hydroxy tamoxifen, Mean ± SD (Range) ([5]; 2 mg/day, gel 57 mg/100 g, n=12, Second cycle, +12 days): (0-30.4) pg/mL
SMILES: CCC(=C(c1ccc(O)cc1)c1ccc(OCCN(C)C)cc1)c1ccccc1 [4-hydroxy tamoxifen, 1-[4-(2-N-dimethylaminoethoxy)phenyl]-1-(4-hydroxyphenyl)-2-phenylbut-1-ene]
- Systemic effects [2]: no detectable laboratory or clinical evidence of systemic effects
- Metabolism in cytosolic and nuclear fractions of breast tissue [3]: remained unmetabolized except for limited isomerization from the Z to the E form
- Subcellular distribution in breast tissue [3]: concentrated predominantly in the cytosolic and nuclear fractions of breast tissue
- Radioactivity in excised tissue and normal breast tissue surrounding the tumor [4]: contained radioactivity
- Rat liver carcinogen (rat liver; in vivo): not

- Share of radioactivity in blood [1]: 18%
SMILES: CCC(=C(c1ccc(O)cc1)c1ccc(OCCNC)cc1)c1ccccc1 [N-Desmethyl-4-Hydroxy Tamoxifen]

- Percentage of radioactivity in breast tissue as Z and E isomer [3]: 32%
SMILES: CC/C(=C(\c1ccc(O)cc1)c1ccc(OCCN(C)C)cc1)c1ccccc1 [Z-4-hydroxy tamoxifen]

The next lines start with the compound.

SMILES: CCC(=C(c1ccc(O)cc1)c1ccc(O)cc1)c1ccccc1 [Bisphenol]
- Share of radioactivity in blood [1]: 11%

SMILES: CC/C(=C(\c1ccccc1)c1ccc(OCCN(C)C)cc1)c1ccccc1 [tamoxifen, reference compound]
- Reported side effects [6]: hot flashes and mild vaginitis
- Rat liver carcinogen (rat liver): is a potent rat liver carcinogen
